# Test results taken from the supplement of paper PMC10307832.
# Key:
# Experiment in all cases: relative viability (nuclei count vs DMSO), 5 days (fraction); higher = more cells survive
# [1] = test system: UMC-11
# Outline: (§1)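 Each reported value is a median over duplicate plates. It expresses relative viability: treated-well nuclei count divided by vehicle-well nuclei count. Lung cancer cell lines in 1536-well plates were dosed by pin tool a day after seeding, alone with one drug or with a fixed anchor-drug dose plus five library-drug doses (not always all listed) in √10 steps, and nuclei were counted after 5 days.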
# [2] = test system: LU99A
# Outline: as §1
# [3] = test system: COR-L23
# Outline: as §1
# [4] = test system: HOP-62
# Outline: as §1
# [5] = test system: NCI-H1355
# Outline: as §1
# [6] = test system: NCI-H838
# Outline: as §1
# [7] = test system: ABC-1
# Outline: as §1
# [8] = test system: NCI-H1993
# Outline: as §1
# [9] = test system: LC-2-ad
# Outline: as §1
# [10] = test system: HARA
# Outline: as §1
# [11] = test system: NCI-H2347
# Outline: as §1
# [12] = test system: NCI-H650
# Outline: as §1
compound,measurement,setting,value
COc1cc2nccc(Oc3ccc(NC(=O)Nc4cc(C)on4)c(Cl)c3)c2cc1OC [Tivozanib] + C[C@@H](Oc1cc(-c2cnn(C3CCNCC3)c2)cnc1N)c1c(Cl)ccc(F)c1Cl [Crizotinib] (partner 1 µM),relative viability,[1]; first compound 0.005 µM,0.656
same,relative viability,[1]; first compound 0.01581 µM,0.603
same,relative viability,[1]; first compound 0.05 µM,0.649
same,relative viability,[1]; first compound 0.5 µM,0.536
same,relative viability,[2]; first compound 0.005 µM,0.549
same,relative viability,[2]; first compound 0.01581 µM,0.537
same,relative viability,[2]; first compound 0.05 µM,0.555
same,relative viability,[2]; first compound 0.5 µM,0.482
same,relative viability,[3]; first compound 0.005 µM,0.622
same,relative viability,[3]; first compound 0.01581 µM,0.615
same,relative viability,[3]; first compound 0.05 µM,0.659
same,relative viability,[3]; first compound 0.1581 µM,0.643
same,relative viability,[3]; first compound 0.5 µM,0.543
same,relative viability,[4]; first compound 0.005 µM,0.557
same,relative viability,[4]; first compound 0.01581 µM,0.939
same,relative viability,[4]; first compound 0.05 µM,0.928
same,relative viability,[4]; first compound 0.1581 µM,0.853
same,relative viability,[4]; first compound 0.5 µM,0.919
same,relative viability,[5]; first compound 0.005 µM,1.03
same,relative viability,[5]; first compound 0.01581 µM,1.03
same,relative viability,[5]; first compound 0.05 µM,1.08
same,relative viability,[5]; first compound 0.5 µM,1.07
same,relative viability,[6]; first compound 0.005 µM,0.886
same,relative viability,[6]; first compound 0.01581 µM,0.82
same,relative viability,[6]; first compound 0.05 µM,0.857
same,relative viability,[6]; first compound 0.5 µM,0.779
same,relative viability,[7]; first compound 0.005 µM,1.09
same,relative viability,[7]; first compound 0.01581 µM,1.12
same,relative viability,[7]; first compound 0.05 µM,1.09
same,relative viability,[7]; first compound 0.1581 µM,1.08
same,relative viability,[7]; first compound 0.5 µM,0.874
same,relative viability,[8]; first compound 0.005 µM,0.764
same,relative viability,[8]; first compound 0.01581 µM,0.852
same,relative viability,[8]; first compound 0.05 µM,0.926
same,relative viability,[8]; first compound 0.1581 µM,0.707
same,relative viability,[8]; first compound 0.5 µM,0.852
same,relative viability,[9]; first compound 0.005 µM,0.413
same,relative viability,[9]; first compound 0.01581 µM,0.426
same,relative viability,[9]; first compound 0.05 µM,0.522
same,relative viability,[9]; first compound 0.1581 µM,0.468
same,relative viability,[9]; first compound 0.5 µM,0.347
same,relative viability,[10]; first compound 0.005 µM,0.976
same,relative viability,[10]; first compound 0.01581 µM,1
same,relative viability,[10]; first compound 0.05 µM,1.21
same,relative viability,[10]; first compound 0.1581 µM,1.09
same,relative viability,[10]; first compound 0.5 µM,0.974
same,relative viability,[11]; first compound 0.005 µM,0.578
same,relative viability,[11]; first compound 0.01581 µM,0.679
same,relative viability,[11]; first compound 0.05 µM,0.673
same,relative viability,[11]; first compound 0.1581 µM,0.685
same,relative viability,[11]; first compound 0.5 µM,0.605
same,relative viability,[12]; first compound 0.005 µM,0.596
same,relative viability,[12]; first compound 0.01581 µM,0.906
